The record followed here is the supplement of paper PMC12463676, “Small-molecule dissolution of stress granules by redox modulation benefits ALS models” (Nature Chemical Biology, 2025).

Compound in one test: NC(=O)CCCCC1CCSS1 [lipoamide]
As to the kind of experiment: thermal stability z-score vs DMSO; higher = more thermally stabilized by treatment. The note with it: HeLa, lipoamide concentration 100 µM. The procedure:
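Cellular thermal proteome profiling in HeLa cells. Cells were treated with 100 µM lipoamide for 1 h, with or without 1 mM arsenate for a further 1 h, then heated to ten temperatures (37-66.3 °C), and soluble protein was quantified by TMT mass spectrometry relative to 0.1% DMSO controls. The thermal stability score (sum of log2 fold changes minus the abundance score) was transformed to a z-score; mean of n = 3 experiments.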

Compound in another test: O=[As]([O-])(O)O.[K+] [potassium arsenate]
The test is described as above. The following applies: HeLa; arsenate concentration 1 mM. The procedure: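 Cellular thermal proteome profiling in HeLa cells treated with 1 mM arsenate for 1 h (DMSO pretreatment), heated to ten temperatures (37-66.3 °C). Soluble protein was quantified by TMT mass spectrometry relative to DMSO controls; the thermal stability score was transformed to a z-score; mean of n = 3 experiments.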

The mark [1] stands for this setting: arsenate co-treatment: 1 mM arsenate 1 h.
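Note: each temperature applied for 3 min, abundance score taken as mean log2 fold change at the two lowest temperatures, z-score obtained by mean subtraction and division by SD.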

UniProt Q13561, sequence (Q13561 whole entry): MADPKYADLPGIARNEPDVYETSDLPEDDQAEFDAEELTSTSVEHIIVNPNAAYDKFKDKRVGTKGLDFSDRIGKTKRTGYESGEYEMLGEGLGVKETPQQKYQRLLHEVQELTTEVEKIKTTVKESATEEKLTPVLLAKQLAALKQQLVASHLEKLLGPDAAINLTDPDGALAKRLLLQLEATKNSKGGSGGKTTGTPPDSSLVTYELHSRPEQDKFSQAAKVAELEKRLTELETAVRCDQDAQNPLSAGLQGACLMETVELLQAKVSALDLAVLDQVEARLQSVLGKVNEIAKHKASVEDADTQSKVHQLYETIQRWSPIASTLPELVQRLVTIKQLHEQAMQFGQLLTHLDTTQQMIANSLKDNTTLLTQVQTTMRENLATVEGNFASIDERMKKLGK
UniProt Q04725, sequence (Q04725 whole entry): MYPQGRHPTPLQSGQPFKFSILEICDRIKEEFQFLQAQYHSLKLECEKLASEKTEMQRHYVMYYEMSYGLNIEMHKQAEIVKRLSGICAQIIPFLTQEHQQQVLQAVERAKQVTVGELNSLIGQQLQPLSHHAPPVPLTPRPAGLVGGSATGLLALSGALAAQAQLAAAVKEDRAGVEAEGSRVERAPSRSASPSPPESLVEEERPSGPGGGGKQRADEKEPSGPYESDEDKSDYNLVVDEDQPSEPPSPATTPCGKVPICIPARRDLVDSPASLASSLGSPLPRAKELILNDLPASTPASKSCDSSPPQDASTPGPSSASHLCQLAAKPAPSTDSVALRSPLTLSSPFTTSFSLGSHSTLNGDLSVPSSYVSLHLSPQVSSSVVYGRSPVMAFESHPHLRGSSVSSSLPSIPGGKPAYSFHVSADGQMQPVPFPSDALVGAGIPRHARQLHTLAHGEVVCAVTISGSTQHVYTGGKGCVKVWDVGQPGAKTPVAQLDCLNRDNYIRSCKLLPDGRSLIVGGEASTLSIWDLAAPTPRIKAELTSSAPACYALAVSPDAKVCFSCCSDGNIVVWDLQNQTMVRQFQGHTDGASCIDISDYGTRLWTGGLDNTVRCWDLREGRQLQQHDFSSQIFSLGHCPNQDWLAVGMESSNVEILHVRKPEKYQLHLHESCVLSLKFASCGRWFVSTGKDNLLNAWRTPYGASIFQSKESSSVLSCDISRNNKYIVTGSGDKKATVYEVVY
UniProt Q9UI14, sequence (Q9UI14 whole entry): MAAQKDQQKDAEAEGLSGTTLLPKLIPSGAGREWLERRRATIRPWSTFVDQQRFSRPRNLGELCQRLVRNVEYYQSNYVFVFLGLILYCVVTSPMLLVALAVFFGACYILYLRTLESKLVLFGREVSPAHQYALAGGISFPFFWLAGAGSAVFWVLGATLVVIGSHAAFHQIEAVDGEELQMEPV
UniProt Q9Y4D7, sequence (Q9Y4D7 whole entry): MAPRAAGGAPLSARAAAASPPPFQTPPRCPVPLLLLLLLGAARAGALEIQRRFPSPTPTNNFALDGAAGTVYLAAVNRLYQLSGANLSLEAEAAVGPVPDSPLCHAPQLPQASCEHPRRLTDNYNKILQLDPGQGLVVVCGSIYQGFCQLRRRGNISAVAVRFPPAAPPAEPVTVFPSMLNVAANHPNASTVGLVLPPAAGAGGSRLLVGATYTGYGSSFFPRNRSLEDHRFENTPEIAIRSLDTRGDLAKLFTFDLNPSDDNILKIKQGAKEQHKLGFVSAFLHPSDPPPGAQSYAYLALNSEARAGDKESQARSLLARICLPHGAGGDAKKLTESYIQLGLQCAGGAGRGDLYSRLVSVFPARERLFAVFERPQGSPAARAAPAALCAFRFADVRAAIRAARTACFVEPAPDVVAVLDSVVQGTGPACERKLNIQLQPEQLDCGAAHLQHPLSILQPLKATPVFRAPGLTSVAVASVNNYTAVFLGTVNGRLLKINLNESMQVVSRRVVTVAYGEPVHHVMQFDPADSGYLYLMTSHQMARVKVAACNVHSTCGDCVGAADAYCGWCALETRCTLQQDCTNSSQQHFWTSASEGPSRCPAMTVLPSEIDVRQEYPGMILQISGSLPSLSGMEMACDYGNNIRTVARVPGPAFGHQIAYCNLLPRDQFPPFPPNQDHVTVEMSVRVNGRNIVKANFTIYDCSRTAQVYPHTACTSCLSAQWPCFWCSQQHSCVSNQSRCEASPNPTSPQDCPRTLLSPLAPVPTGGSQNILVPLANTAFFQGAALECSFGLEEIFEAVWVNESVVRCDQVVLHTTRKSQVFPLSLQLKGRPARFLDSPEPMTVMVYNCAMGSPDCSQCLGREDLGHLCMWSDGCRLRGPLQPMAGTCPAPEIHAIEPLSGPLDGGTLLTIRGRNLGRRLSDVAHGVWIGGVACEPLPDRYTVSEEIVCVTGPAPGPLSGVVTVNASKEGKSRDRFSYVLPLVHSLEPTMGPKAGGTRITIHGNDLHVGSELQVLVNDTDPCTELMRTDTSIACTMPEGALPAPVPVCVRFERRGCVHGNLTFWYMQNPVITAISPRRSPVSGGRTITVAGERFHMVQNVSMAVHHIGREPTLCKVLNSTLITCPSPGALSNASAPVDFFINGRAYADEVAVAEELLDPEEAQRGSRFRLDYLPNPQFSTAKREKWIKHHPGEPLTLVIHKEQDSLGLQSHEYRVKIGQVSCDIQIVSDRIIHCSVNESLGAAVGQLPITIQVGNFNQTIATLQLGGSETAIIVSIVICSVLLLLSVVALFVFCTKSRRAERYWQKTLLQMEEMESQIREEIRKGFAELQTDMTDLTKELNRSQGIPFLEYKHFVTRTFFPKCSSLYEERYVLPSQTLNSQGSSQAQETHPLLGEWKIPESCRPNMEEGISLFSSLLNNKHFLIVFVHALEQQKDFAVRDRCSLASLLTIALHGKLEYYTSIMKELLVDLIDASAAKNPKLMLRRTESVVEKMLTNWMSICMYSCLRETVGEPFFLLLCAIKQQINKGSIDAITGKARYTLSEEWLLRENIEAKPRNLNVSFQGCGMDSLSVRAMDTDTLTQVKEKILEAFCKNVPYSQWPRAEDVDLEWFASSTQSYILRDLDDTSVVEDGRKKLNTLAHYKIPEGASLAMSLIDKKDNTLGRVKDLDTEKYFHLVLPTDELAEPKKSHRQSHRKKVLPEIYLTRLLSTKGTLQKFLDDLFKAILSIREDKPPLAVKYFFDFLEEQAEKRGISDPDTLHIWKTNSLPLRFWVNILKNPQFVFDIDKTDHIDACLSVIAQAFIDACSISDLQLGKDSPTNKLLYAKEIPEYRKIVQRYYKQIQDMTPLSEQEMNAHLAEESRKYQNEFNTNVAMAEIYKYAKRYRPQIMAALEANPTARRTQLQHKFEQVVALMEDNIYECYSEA
UniProt Q9GZP8, sequence (Q9GZP8 whole entry): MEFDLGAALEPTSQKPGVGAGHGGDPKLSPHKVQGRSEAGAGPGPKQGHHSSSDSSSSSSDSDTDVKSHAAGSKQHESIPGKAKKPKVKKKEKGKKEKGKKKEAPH
UniProt A6NIH7, sequence (A6NIH7 whole entry): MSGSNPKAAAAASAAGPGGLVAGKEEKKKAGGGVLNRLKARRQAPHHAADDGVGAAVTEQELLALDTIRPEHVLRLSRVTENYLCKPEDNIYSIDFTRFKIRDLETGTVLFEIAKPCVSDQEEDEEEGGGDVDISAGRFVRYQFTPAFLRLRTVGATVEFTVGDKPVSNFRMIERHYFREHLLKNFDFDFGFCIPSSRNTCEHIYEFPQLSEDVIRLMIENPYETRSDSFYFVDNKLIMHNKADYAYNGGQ
UniProt Q86UA1, sequence (Q86UA1 whole entry): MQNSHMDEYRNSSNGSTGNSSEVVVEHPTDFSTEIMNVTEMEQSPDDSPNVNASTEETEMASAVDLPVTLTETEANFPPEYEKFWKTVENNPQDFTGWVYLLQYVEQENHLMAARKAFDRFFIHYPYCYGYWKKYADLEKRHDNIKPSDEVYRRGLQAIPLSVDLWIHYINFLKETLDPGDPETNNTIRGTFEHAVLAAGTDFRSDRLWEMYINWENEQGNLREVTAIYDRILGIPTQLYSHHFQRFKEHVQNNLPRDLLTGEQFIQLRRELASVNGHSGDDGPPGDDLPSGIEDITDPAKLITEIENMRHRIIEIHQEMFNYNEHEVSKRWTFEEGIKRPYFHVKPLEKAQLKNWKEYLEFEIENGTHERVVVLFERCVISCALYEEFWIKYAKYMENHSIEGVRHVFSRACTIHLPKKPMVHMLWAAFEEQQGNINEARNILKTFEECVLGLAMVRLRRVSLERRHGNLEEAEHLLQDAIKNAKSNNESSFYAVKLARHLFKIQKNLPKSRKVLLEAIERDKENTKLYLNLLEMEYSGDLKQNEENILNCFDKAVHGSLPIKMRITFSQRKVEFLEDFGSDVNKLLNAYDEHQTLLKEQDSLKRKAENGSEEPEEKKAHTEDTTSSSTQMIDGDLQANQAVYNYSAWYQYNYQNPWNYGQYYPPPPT
UniProt P36551, sequence (P36551 whole entry): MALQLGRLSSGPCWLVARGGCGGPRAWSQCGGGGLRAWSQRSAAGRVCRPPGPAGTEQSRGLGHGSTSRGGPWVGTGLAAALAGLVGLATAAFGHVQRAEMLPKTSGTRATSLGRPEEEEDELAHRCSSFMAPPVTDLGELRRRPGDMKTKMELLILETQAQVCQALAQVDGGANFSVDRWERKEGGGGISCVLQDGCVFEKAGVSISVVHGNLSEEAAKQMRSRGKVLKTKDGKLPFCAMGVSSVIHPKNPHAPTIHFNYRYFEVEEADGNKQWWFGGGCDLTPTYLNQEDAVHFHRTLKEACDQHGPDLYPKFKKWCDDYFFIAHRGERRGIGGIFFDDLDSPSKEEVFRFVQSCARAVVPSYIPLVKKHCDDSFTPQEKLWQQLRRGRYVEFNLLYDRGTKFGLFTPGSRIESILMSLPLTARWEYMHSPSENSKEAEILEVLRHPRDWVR
UniProt P07741, sequence (P07741 whole entry): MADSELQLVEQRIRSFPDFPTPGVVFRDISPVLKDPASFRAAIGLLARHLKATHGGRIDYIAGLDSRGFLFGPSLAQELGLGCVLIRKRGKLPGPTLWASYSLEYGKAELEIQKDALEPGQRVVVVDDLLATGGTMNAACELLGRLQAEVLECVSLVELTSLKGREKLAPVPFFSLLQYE

Turning to BCOR (UniProt Q6W2J9), the results for the thermal stability z-score with lipoamide (setting [1]), with lipoamide (arsenate co-treatment: none) and with potassium arsenate were 0.0203, 0.0502 and -0.011, respectively.
ALKBH4 (UniProt Q9NXW9): the thermal stability z-score with lipoamide (setting [1]) was 0.0364; with lipoamide (arsenate co-treatment: none), 0.0782; in the test with potassium arsenate, -0.163.
The corresponding values for MPP6 are -0.288, -0.0854 and -0.29.
As to APOO (UniProt Q9BUR5), the thermal stability z-score with lipoamide (setting [1]) amounted to 0.803; in the test with lipoamide (arsenate co-treatment: none), 0.64; in the test with potassium arsenate, 0.23.
Take IMUP (UniProt Q9GZP8): the thermal stability z-score is -0.123 in the test with lipoamide (setting [1]), -0.141 with lipoamide (arsenate co-treatment: none) and 0.162 with potassium arsenate.
Regarding GTPBP10 (UniProt A4D1E9), the thermal stability z-score with lipoamide (setting [1]) is -0.946; with lipoamide (arsenate co-treatment: none), 0.2; in the test with potassium arsenate, 0.522.
Turning to DCTN2 (UniProt Q13561), the thermal stability z-score in the test with lipoamide (setting [1]) turned out to be 0.321; with lipoamide (arsenate co-treatment: none) it was 0.719; in the test with potassium arsenate, 0.914.
For PRPF39 (UniProt Q86UA1), the thermal stability z-score in the test with lipoamide (setting [1]) is -0.0835; with lipoamide (arsenate co-treatment: none) it was -0.137; with potassium arsenate it was -0.0696.
KIF20A (UniProt O95235): the thermal stability z-score with lipoamide (setting [1]) was 0.142; with lipoamide (arsenate co-treatment: none), 0.152; in the test with potassium arsenate, -0.154.
Consider BET1 (UniProt O15155), for which the figures for the thermal stability z-score in the test with lipoamide (setting [1]), with lipoamide (arsenate co-treatment: none) and with potassium arsenate were 0.642, 1.03 and 1.11, respectively.
Take APRT (UniProt P07741): the thermal stability z-score with lipoamide (setting [1]) came out at 0.387; with lipoamide (arsenate co-treatment: none) it was 0.419; with potassium arsenate, 0.345.
With TMEM173 (UniProt Q86WV6), the figures for the thermal stability z-score with lipoamide (setting [1]), in the test with lipoamide (arsenate co-treatment: none) and in the test with potassium arsenate were 0.0822, -0.0914 and -0.0763, respectively.
Take TPRKB (UniProt Q9Y3C4): the values for the thermal stability z-score with lipoamide (setting [1]), in the test with lipoamide (arsenate co-treatment: none) and with potassium arsenate were -0.134, -0.764 and -0.881, respectively.
Consider AP4B1 (UniProt Q9Y6B7), for which the thermal stability z-score was 0.0905 with lipoamide (setting [1]), -0.147 with lipoamide (arsenate co-treatment: none) and -0.137 with potassium arsenate.
The corresponding values for GABARAPL2 (UniProt P60520) are 0.14, -0.266 and 0.209.
As to ZMIZ2 (UniProt Q8NF64), the thermal stability z-score in the test with lipoamide (setting [1]) is -0.177; in the test with lipoamide (arsenate co-treatment: none), -0.321; with potassium arsenate, -0.482.
GEMIN8 (UniProt Q9NWZ8): the thermal stability z-score was 0.0342 with lipoamide (setting [1]), -0.0734 with lipoamide (arsenate co-treatment: none) and -0.0475 in the test with potassium arsenate.
The corresponding values for IFIT1 (UniProt P09914) are -0.626, -0.265 and 0.419.
For ARPC5L (UniProt Q9BPX5), the thermal stability z-score with lipoamide (setting [1]) is 0.0991; in the test with lipoamide (arsenate co-treatment: none), -0.00985; in the test with potassium arsenate, -0.302.
On to UQCRC1 (UniProt P31930), for which the thermal stability z-score with lipoamide (setting [1]) is 1.43; with lipoamide (arsenate co-treatment: none), 0.508; with potassium arsenate, -1.38.
Regarding EDC3 (UniProt Q96F86), the thermal stability z-score with lipoamide (setting [1]) is -0.713; with lipoamide (arsenate co-treatment: none) it was -0.608; in the test with potassium arsenate it was -0.555.
Take PLXND1 (UniProt Q9Y4D7): the thermal stability z-score with lipoamide (setting [1]) was -0.194; in the test with lipoamide (arsenate co-treatment: none), -0.712; with potassium arsenate, 0.534.
As for HARS2 (UniProt P49590), the thermal stability z-score is -0.108 with lipoamide (setting [1]), -0.629 in the test with lipoamide (arsenate co-treatment: none) and -0.0959 in the test with potassium arsenate.
The corresponding values for SDR16C5 (UniProt Q8N3Y7) are -0.26, -0.252 and 0.0129.
In the case of CDK5RAP3 (UniProt Q96JB5), the thermal stability z-score in the test with lipoamide (setting [1]) is -0.0376; in the test with lipoamide (arsenate co-treatment: none) it was 0.162; in the test with potassium arsenate, 0.406.
Regarding RABAC1 (UniProt Q9UI14), the thermal stability z-score with lipoamide (setting [1]) was 0.138; with lipoamide (arsenate co-treatment: none), -0.0907; in the test with potassium arsenate it was -0.431.
NMI (UniProt Q13287): the thermal stability z-score is 1.24 with lipoamide (setting [1]), 0.324 in the test with lipoamide (arsenate co-treatment: none) and 2.1 with potassium arsenate.
For the target PTPN2 (UniProt P17706), the figures for the thermal stability z-score in the test with lipoamide (setting [1]), in the test with lipoamide (arsenate co-treatment: none) and with potassium arsenate were 0.0491, 0.308 and 0.95, respectively.
Take WDR82 (UniProt Q6UXN9): the thermal stability z-score in the test with lipoamide (setting [1]) is 0.88; with lipoamide (arsenate co-treatment: none) it was -0.211; with potassium arsenate, -0.75.
On to CACYBP (UniProt Q9HB71), for which the thermal stability z-score with lipoamide (setting [1]) is 0.276; in the test with lipoamide (arsenate co-treatment: none), 0.0201; with potassium arsenate, 0.37.
On to LACTB2 (UniProt Q53H82), for which the thermal stability z-score is -0.112 in the test with lipoamide (setting [1]), -0.0753 with lipoamide (arsenate co-treatment: none) and -0.335 in the test with potassium arsenate.
In the case of TLE2 (UniProt Q04725), the thermal stability z-score is -0.165 with lipoamide (setting [1]), 0.842 with lipoamide (arsenate co-treatment: none) and 0.141 with potassium arsenate.
As to ICOSLG (UniProt O75144), the values for the thermal stability z-score with lipoamide (setting [1]), in the test with lipoamide (arsenate co-treatment: none) and with potassium arsenate were -0.136, -0.0493 and -0.984, respectively.
The like results for UBAP1 (UniProt Q9NZ09) were, in that order, -1.2, -0.177 and -0.964.
For the target UNC119B (UniProt A6NIH7), the thermal stability z-score with lipoamide (setting [1]) was 1.07; with lipoamide (arsenate co-treatment: none) it was 0.468; in the test with potassium arsenate, -0.0898.
Take SNAPIN (UniProt O95295): the thermal stability z-score with lipoamide (setting [1]) came to 0.164; with lipoamide (arsenate co-treatment: none) it was 0.647; with potassium arsenate it was 0.267.
As for GDPD1 (UniProt Q8N9F7), the figures for the thermal stability z-score with lipoamide (setting [1]), with lipoamide (arsenate co-treatment: none) and in the test with potassium arsenate were -0.226, -0.624 and -1.05, respectively.
As for RCOR3 (UniProt Q9P2K3), the thermal stability z-score in the test with lipoamide (setting [1]) worked out at 0.0711; with lipoamide (arsenate co-treatment: none), 0.0826; with potassium arsenate, 0.119.
Consider CPOX (UniProt P36551), for which the figures for the thermal stability z-score with lipoamide (setting [1]), in the test with lipoamide (arsenate co-treatment: none) and with potassium arsenate were 0.526, -0.338 and -0.525, respectively.
As to AKR7A2 (UniProt O43488), the figures for the thermal stability z-score in the test with lipoamide (setting [1]), with lipoamide (arsenate co-treatment: none) and with potassium arsenate were 0.2, -0.0291 and 0.581, respectively.
The like results for DUS3L (UniProt Q96G46) were, in that order, -0.321, -0.548 and -0.458.
The corresponding values for GCFC2 (UniProt P16383) are 0.317, 0.441 and -0.00138.
